Read-outs that look alike come from different tables or passages of the source.
Assays:
[1] = target: MDR1 gene product transport enzyme (P-gp) in CR1R12 cell membranes (Cricetulus griseus, UniProt P21448); assay: P-gp-mediated ATP hydrolysis (phosphate release) assay with CR1R12 membrane microsomes; format: biochemical, rodent
From the text: ATP hydrolysis as nmol/min/mg is plotted against SCH66336 concentration.
The second Example monitored the consumption of ATP, a high-energy biological energy source required for transporter enzyme function. ATP is converted to two other chemicals—ADP and inorganic phosphate—during the P-gp mediated transport porcess.
The method was modified to be carried out in a 96-well microplate.
CR1R12 cell membranes enriched with the MDR1 gene product transport enzyme were used for preparation of membrane microsomes. Cells were washed with complete Hanks' buffer before being resuspended in 10 ml lysis buffer (Tris-25 HCl, 50 mM; mannitol, 50 mM; EGTA, 2 mM; and dithiothreitol, 2 mM; pH 7.0 at 25° C.) containing protease inhibitors (phenylmethylsulfonyl fluoride, 1 mM; aprotinin, 10 μg/ml; leupeptin, 10 μg/ml). All subsequent steps were performed at 4° C. The cells were lysed by nitrogen cavitation (Parr Instrument Co., Moline, Ill.) at 500 psi for 15 min twice. Nuclei and mitochondria were sedimented by centrifugation at 4000×g for 10 min. The microsomal membrane fraction was then sedimented by centrifugation at 100,000×g for 60 min. […] Aliquots of membrane microsomes were rapidly frozen and stored at −80 ° C. until analysis.
The microsomes were thawed on ice prior to diluting to 3.5 μg protein per well in ice-cold ATPase buffer (sodium ATP, 3 mM; KCl, 50 mM; MgSO4, 10 mM; dithiothreitol, 3 mM; Tris-HCl, 50 mM; pH 7.0) containing 0.5 mM EGTA (to inhibit Ca-ATPase), 0.5 mM ouabain (to inhibit the Na/K-ATPase), and 3 mM sodium azide (to inhibit the mitochondrial ATPase). The total incubation volume including the various inhibitors was 100 μl. The incubation reaction was initiated by transferring the plate from ice to 37° C. and incubating for 30 min; the reaction was terminated by the addition of 50 μl 12% SDS solution at room temperature, followed by the addition of 50 μl of a mixture solution of (equal volumes) 18% fresh ascorbic acid in 1N HCl and 3% ammonium molybdate in 1 N HCl. After 4 min, 100 μl of a solution of 2% sodium citrate and 2% sodium meta-arsenite in 2% acetic acid was added to fix the color formation. […] The respective values for background with ATPase assay buffer alone were obtained in parallel and subtracted from the values for experimental samples.

[2] = target: P-gp (human MDR1) (Homo sapiens, UniProt P08183); assay: in vitro
Method: (§1) The efflux phase or incubation was 30 min in all cases. The average number of cells per assay was 10,000.
(§2) CR1R12 cell line, provided by Dr. Alan Senior (Univ. of Rochester), was maintained in complete α-minimum essential medium (α-MEM) supplemented with 10% FBS, penicillin/streptomycin (50 units/50 μg/ml) in a 5% CO2-95% air atmosphere at 37° C. Colchicine (0.5 μg/ml) was added to the culture medium. Cells were grown to 80-90% confluency and treated with trypsin-EDTA before subculturing. The NIH 3T3 G185 cell line presenting the gene product of human MDR1 was licensed from NIH and maintained in DMEM.
(§3) Fluorescence measurements of individual cells were performed using a Becton-Dickinson FACScalibur fluorescence-activated cell sorter (San Jose, Calif.), equipped with an ultraviolet argon laser (excitation at 488 nm, emission at 530/30 and 570/30 nm band-pass filters). Analysis was gated to include single cells on the basis of forward and side light-scatter and was based on acquisition of data from 10,000 cells. […] A direct functional assay for the P-gp efflux pump in CR1R12 cells was performed with the flow cytometer (Wang et al., 2000).
(§4) Cell viability was assessed using exclusion of 0.4% trypan blue as well as propidium iodide staining. Dead cells in which propidium iodide was bound to double strands of DNA or RNA were detected in certain regions of the cytometry dot plots and not included in the final data calculations.
(§5) The DNR fluorescence intensity of individual cells was recorded as histograms. The mean fluorescence intensity of 10,000 cells was used for comparison among different conditions. Vanadate was selected as a positive control to normalize the measurements because it can maximally inactivate the P-gp efflux pump. Relative fluorescence was used for quantitation and comparison among different compounds. The relative fluorescence (% inactivation) represents a ratio obtained through the following formula: the geometric mean fluorescence of a discrete sample divided by the geometric mean fluorescence in the presence of 5 mM vanadate, times 100, or expressed as [formula]

[3] = target: T1, P-gp efflux pump in CR1R12 cells (Cricetulus griseus, UniProt P21448); assay: cell-based
Method: (§6) The efflux phase or incubation was 30 min in all cases. The average number of cells per assay was 10,000. The function for the line through the data is the Hill equation: v=VmaxSn/(K′+Sn). The parameters IC50 and the Hill coefficient along with the standard deviation are shown on the respective graphs.
(§7) CR1R12 cell line, provided by Dr. Alan Senior (Univ. of Rochester), was maintained in complete α-minimum essential medium (α-MEM) supplemented with 10% FBS, penicillin/streptomycin (50 units/50 μg/ml) in a 5% CO2-95% air atmosphere at 37° C. Colchicine (0.5 μg/ml) was added to the culture medium. Cells were grown to 80-90% confluency and treated with trypsin-EDTA before subculturing.
(§8) Fluorescence measurements of individual cells were performed using a Becton-Dickinson FACScalibur fluorescence-activated cell sorter (San Jose, Calif.), equipped with an ultraviolet argon laser (excitation at 488 nm, emission at 530/30 and 570/30 nm band-pass filters). […]
as §4
(§9) The DNR fluorescence intensity of individual cells was recorded as histograms. […]

[4] = target: T1, P-gp efflux pump in CR1R12 cells; conditions: compared with verapamil
Method: as §6, §7, §8, §4, §9

[5] = target: T2, gene product of human MDR1 (P-gp) in NIH 3T3 G185 cells (Homo sapiens, UniProt P08183); conditions: IC50 G185 vs IC50 CR1R12
Method: as §1, §2, §3, §4, §5

[6] = target: P-gp (Cricetulus griseus, UniProt P21448); assay: Retention of rhodamine 123 (Rho), fluorescent P-gp substrate, in cells
Method: as §3, §5

[7] = target: T2, gene product of human MDR1 (P-gp) in NIH 3T3 G185 cells; assay: cell-based
Method: as §1, §2, §3, §4, §5

Chain of MDR1 gene product transport enzyme (P-gp) in CR1R12 cell membranes (P21448 whole entry): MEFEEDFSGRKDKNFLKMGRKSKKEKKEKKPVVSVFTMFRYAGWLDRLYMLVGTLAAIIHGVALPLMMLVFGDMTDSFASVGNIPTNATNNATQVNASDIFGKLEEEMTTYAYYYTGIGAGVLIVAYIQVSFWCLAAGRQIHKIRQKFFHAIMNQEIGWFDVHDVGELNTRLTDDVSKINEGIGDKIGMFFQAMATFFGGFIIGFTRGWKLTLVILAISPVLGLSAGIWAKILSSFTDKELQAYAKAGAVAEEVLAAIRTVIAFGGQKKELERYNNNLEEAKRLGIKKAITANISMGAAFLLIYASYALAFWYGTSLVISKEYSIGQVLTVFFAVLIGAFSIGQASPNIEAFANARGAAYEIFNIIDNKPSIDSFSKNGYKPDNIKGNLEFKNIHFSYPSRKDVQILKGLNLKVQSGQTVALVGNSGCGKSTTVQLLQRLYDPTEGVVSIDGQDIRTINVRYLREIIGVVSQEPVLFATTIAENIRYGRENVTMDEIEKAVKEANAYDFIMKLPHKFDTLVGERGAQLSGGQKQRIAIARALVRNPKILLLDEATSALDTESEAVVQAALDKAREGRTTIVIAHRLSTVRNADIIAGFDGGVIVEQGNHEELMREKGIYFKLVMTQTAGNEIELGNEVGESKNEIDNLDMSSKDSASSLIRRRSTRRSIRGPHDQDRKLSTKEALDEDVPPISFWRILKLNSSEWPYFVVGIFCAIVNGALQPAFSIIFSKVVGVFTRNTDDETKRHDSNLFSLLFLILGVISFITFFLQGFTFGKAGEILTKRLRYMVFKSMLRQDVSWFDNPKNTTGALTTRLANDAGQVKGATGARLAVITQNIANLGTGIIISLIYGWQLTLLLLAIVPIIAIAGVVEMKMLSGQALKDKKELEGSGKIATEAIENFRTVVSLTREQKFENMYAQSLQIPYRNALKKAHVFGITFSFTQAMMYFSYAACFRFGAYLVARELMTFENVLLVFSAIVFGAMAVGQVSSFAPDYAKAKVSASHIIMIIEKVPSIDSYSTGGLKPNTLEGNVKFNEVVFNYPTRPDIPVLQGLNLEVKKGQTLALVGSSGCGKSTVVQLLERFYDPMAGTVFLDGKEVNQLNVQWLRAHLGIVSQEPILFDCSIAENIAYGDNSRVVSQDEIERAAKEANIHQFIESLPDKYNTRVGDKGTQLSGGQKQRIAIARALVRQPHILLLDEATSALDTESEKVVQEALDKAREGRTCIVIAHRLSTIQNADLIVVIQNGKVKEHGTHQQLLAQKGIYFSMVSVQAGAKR
T2 sequence (P08183 whole entry): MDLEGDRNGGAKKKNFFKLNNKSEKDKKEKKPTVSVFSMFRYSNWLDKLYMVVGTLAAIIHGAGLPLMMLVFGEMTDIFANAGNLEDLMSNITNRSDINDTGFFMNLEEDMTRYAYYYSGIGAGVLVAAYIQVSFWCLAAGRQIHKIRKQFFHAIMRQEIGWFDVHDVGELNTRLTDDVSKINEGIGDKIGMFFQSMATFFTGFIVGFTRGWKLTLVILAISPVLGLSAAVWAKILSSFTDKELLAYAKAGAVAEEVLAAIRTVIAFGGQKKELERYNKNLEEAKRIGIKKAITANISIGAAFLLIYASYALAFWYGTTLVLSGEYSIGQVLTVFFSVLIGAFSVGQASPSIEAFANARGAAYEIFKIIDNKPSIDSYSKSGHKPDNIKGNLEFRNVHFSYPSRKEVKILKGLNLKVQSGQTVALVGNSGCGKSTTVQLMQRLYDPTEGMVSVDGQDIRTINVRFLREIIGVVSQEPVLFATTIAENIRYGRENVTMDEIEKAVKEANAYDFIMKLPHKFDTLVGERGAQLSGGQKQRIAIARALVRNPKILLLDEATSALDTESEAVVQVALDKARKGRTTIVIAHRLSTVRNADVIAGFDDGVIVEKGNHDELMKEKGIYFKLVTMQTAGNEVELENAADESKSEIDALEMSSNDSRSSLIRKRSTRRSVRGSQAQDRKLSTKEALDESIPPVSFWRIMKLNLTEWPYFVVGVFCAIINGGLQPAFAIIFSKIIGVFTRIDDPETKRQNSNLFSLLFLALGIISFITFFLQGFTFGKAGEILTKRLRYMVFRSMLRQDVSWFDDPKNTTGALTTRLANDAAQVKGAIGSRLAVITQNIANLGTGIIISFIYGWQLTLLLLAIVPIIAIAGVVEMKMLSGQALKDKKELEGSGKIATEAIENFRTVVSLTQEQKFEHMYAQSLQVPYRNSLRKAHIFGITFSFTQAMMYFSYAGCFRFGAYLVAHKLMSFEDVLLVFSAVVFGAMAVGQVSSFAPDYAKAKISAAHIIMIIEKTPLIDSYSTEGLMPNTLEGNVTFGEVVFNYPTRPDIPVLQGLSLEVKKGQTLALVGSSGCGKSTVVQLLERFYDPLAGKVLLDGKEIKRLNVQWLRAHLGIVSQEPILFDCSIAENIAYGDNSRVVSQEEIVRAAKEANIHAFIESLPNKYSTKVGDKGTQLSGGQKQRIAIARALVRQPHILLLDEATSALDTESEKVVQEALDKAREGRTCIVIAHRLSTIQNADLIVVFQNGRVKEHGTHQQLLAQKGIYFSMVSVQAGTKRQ
T1 sequence (P21448 whole entry): as the sequence (P21448 whole entry) above
Chain of P-gp (human MDR1) (P08183 whole entry): as the sequence (P08183 whole entry) above

Work on `C=C[C@H]1C[N@@]2CC[C@H]1C[C@@H]2[C@@H](O)c1ccnc2ccc(OC)cc12` [Quinidine, quinidine, reference compound] yielded a Vmax % control [1] of 239 % control.
In the case of `COc1cccc2c1C(=O)c1c(O)c3c(c(O)c1C2=O)C[C@@](O)(C(C)=O)C[C@@H]3O[C@H]1C[C@H](N)[C@H](O)[C@H](C)O1` [Daunorubicin, reference compound], the Vmax % control ([1]; ATP hydrolysis, Table 1) is reported as 170 % control.
`NC(=O)N1CCC(CC(=O)N2CCC(C3c4ncc(Br)cc4CCc4cc(Cl)cc(Br)c43)CC2)CC1` (stereo not drawn) [SCH66336] was tested, and the IC50 at 30 min [2] was under 3 µM, the IC50 [3] was about 9 µM and the “extent of inhibition of DNR transport” value [4] was “exceeding that of verapamil”. The “effect on rate of ATP hydrolysis relative to baseline rate” value [1] was “concentration-dependent decrease”, the Vmax ([1]; ATP hydrolysis, Example B results text) was about 28 % baseline and the Vmax ([1]; ATP hydrolysis, FIG. 2 legend) was 28 % of control. For the same compound, the “potency in G185 cells relative to CR1R12 cell line” value [5] was “three times as potent”, the IC50 [6] was about 11 µM and the IC50 [7] was about 3 µM.
`CC(=O)[C@H]1CC[C@H]2[C@@H]3CCC4=CC(=O)CC[C@]4(C)[C@H]3CC[C@]12C` [Progesterone, reference compound] was tested, and the Vmax % control ([1]; ATP hydrolysis, Table 1) was 236 % control.

From patent US6703400B2, “Methods for treating multidrug resistance” (Schering Corporation, priority 2001, dated 2004)
